Assay results taken from paper PMC11062906 (Nature, 2024).
Several values for one entry are separate records, joined by “and”; a condition that tells them apart may be missing. Identical values can stand only once.

Key:
BmGr9 Q443E_Q445K = BmGr9 Q443E_Q445K (Bombyx mori, UniProt B3GTD7, Q443E/Q445K); experiment: GCaMP calcium flux assay, BmGr9 Q443E_Q445K; format: cell-based
BmGr9 T330S = BmGr9 T330S (Bombyx mori, UniProt B3GTD7, T330S); experiment: GCaMP calcium flux assay, BmGr9 T330S; format: cell-based
BmGr9 D165A = experiment: GCaMP calcium flux assay, BmGr9 D165A; format: cell-based, Bombyx mori
BmGr9 D99A = experiment: GCaMP calcium flux assay, BmGr9 D99A; format: cell-based, Bombyx mori
BmGr9 = BmGr9 (Bombyx mori, UniProt B3GTD7); experiment: Intrinsic tryptophan fluorescence of detergent-solubilized purified BmGr9; format: binding
BmGr9 T330A = experiment: GCaMP calcium flux assay, BmGr9 T330A; format: cell-based, Bombyx mori
BmGr9 Y190F = BmGr9 Y190F (Bombyx mori, UniProt B3GTD7, Y190F); experiment: GCaMP calcium flux assay, BmGr9 Y190F; format: cell-based; conditions: 95% CI in parentheses
BmGr9 Y332L = experiment: GCaMP calcium flux assay, BmGr9 Y332L; format: cell-based, Bombyx mori
BmGr9 Q445A = BmGr9 Q445A (Bombyx mori, UniProt B3GTD7, Q445A); experiment: GCaMP calcium flux assay, BmGr9 Q445A; format: cell-based
BmGr9 Q443E_Q445R = BmGr9 Q443E_Q445R (Bombyx mori, UniProt B3GTD7, Q443E/Q445R); experiment: GCaMP calcium flux assay, BmGr9 Q443E_Q445R; format: cell-based
[1] = system: HEK293 cells transfected with GCaMP only; experiment: Cell-based GCaMP calcium flux assay, GCaMP-only control cells
BmGr9 F444A = experiment: GCaMP calcium flux assay, BmGr9 F444A; format: cell-based, Bombyx mori
BmGr9 Q445E = BmGr9 Q445E (Bombyx mori, UniProt B3GTD7, Q445E); experiment: GCaMP calcium flux assay, BmGr9 Q445E; format: cell-based
BmGr9 W354F = experiment: GCaMP calcium flux assay, BmGr9 W354F; format: cell-based, Bombyx mori
BmGr9 Q443E_Q445A = BmGr9 Q443E_Q445A (Bombyx mori, UniProt B3GTD7, Q443E/Q445A); experiment: GCaMP calcium flux assay, BmGr9 Q443E_Q445A; format: cell-based
BmGr9 Y332A = BmGr9 Y332A (Bombyx mori, UniProt B3GTD7, Y332A); experiment: GCaMP calcium flux assay, BmGr9 Y332A; format: cell-based
BmGr9 Q443D_Q445K = BmGr9 Q443D_Q445K (Bombyx mori, UniProt B3GTD7, Q443D/Q445K); experiment: GCaMP calcium flux assay, BmGr9 Q443D_Q445K; format: cell-based
BmGr9 Y332F = BmGr9 Y332F (Bombyx mori, UniProt B3GTD7, Y332F); experiment: GCaMP calcium flux assay, BmGr9 Y332F; format: cell-based
BmGr9 F189Y = BmGr9 F189Y (Bombyx mori, UniProt B3GTD7, F189Y); experiment: GCaMP calcium flux assay, BmGr9 F189Y; format: cell-based
BmGr9 W193F = experiment: GCaMP calcium flux assay, BmGr9 W193F; format: cell-based, Bombyx mori
BmGr9 D99N = experiment: GCaMP calcium flux assay, BmGr9 D99N; format: cell-based, Bombyx mori
BmGr9 P331A = BmGr9 P331A (Bombyx mori, UniProt B3GTD7, P331A); experiment: GCaMP calcium flux assay, BmGr9 P331A; format: cell-based
BmGr9 Q445N = BmGr9 Q445N (Bombyx mori, UniProt B3GTD7, Q445N); experiment: GCaMP calcium flux assay, BmGr9 Q445N; format: cell-based
Chain of BmGr9 Q445N (B3GTD7 entry or part of it Q445N): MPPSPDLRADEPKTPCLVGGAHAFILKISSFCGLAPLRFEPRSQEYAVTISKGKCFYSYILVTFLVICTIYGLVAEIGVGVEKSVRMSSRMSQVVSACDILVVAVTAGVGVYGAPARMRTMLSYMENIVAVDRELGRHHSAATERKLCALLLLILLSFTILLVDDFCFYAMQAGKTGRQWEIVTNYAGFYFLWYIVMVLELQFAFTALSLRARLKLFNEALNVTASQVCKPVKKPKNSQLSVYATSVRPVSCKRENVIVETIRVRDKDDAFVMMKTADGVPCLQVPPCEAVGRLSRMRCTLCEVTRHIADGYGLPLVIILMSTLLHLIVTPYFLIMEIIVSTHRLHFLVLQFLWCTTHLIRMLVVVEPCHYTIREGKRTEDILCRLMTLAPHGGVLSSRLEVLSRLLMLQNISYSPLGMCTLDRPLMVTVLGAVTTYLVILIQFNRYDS

Chain of BmGr9 (B3GTD7 entry or part of it): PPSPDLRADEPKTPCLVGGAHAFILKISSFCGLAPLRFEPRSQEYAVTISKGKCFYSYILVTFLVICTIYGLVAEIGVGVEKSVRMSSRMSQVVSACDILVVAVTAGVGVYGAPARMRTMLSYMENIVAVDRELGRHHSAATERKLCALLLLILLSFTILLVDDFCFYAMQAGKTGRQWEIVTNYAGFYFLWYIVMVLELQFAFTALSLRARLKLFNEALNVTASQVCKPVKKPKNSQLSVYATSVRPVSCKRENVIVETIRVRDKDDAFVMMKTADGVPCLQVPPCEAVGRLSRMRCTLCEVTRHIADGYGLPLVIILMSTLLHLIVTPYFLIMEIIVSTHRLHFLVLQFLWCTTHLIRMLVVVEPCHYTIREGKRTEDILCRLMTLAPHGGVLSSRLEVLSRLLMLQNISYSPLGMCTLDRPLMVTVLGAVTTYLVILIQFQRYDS
Chain of BmGr9 Y332F (B3GTD7 entry or part of it Y332F): as the sequence (B3GTD7 entry or part of it Q445N) above, with Y332F, N445Q counted along it
Chain of BmGr9 Q445A (B3GTD7 entry or part of it Q445A): as the sequence (B3GTD7 entry or part of it Q445N) above, with N445A counted along it
Chain of BmGr9 Q443E_Q445R (B3GTD7 entry or part of it Q443E/Q445R): as the sequence (B3GTD7 entry or part of it Q445N) above, with Q443E, N445R counted along it
Chain of BmGr9 Q443E_Q445K (B3GTD7 entry or part of it Q443E/Q445K): as the sequence (B3GTD7 entry or part of it Q445N) above, with Q443E, N445K counted along it
Chain of BmGr9 P331A (B3GTD7 entry or part of it P331A): as the sequence (B3GTD7 entry or part of it Q445N) above, with P331A, N445Q counted along it
Chain of BmGr9 T330S (B3GTD7 entry or part of it T330S): as the sequence (B3GTD7 entry or part of it Q445N) above, with T330S, N445Q counted along it
Chain of BmGr9 Q443D_Q445K (B3GTD7 entry or part of it Q443D/Q445K): as the sequence (B3GTD7 entry or part of it Q445N) above, with Q443D, N445K counted along it
Chain of BmGr9 Q445E (B3GTD7 entry or part of it Q445E): as the sequence (B3GTD7 entry or part of it Q445N) above, with N445E counted along it
Chain of BmGr9 Q443E_Q445A (B3GTD7 entry or part of it Q443E/Q445A): as the sequence (B3GTD7 entry or part of it Q445N) above, with Q443E, N445A counted along it
Chain of BmGr9 Y332A (B3GTD7 entry or part of it Y332A): as the sequence (B3GTD7 entry or part of it Q445N) above, with Y332A, N445Q counted along it
Chain of BmGr9 F189Y (B3GTD7 entry or part of it F189Y): as the sequence (B3GTD7 entry or part of it Q445N) above, with F189Y, N445Q counted along it
Chain of BmGr9 Y190F (B3GTD7 entry or part of it Y190F): as the sequence (B3GTD7 entry or part of it Q445N) above, with Y190F, N445Q counted along it

O=C(CO)[C@@H](O)[C@H](O)[C@H](O)CO [D-fructose]
EC50 (BmGr9 Q443E_Q445K): 5.1 mM
Hill Slope (BmGr9 Q443E_Q445K; Q443E_Q445K, 95% CI in parentheses): 2.28 (1.51 to 3.62)
EC50 (BmGr9 T330S): ~100 mM
Hill Slope (BmGr9 T330S; T330S): ~3.03
activation by D-fructose (Fmax, Hill slope, EC50 fit) (BmGr9 D165A): no activity
activation by D-fructose (Fmax, Hill slope, EC50 fit) (BmGr9 D99A): no activity
Kd (BmGr9; KD (apparent affinity, tryptophan fluorescence), purified BmGr9 in digitonin, n = 4, 95% CI in parentheses): 16 mM and 15.8 mM
Trp fluorescence emission maximum (BmGr9; saturating D-fructose, maximum near 330 nm without sugar): 324 nm
activation by D-fructose (Fmax, Hill slope, EC50 fit) (BmGr9 T330A): no activity
Hill Slope (BmGr9 Y190F): 0.98 (0.56 to 2.07)
activation by D-fructose (Fmax, Hill slope, EC50 fit) (BmGr9 Y332L): no activity
EC50 (BmGr9 Q445A): 2.01 mM
Hill Slope (BmGr9 Q445A; Q445A): ~3.78
Fluorescence change relative to wild-type BmGr9 (BmGr9 Q445A; Q445A, 100 mM D-fructose): more active than wild-type BmGr9
EC50 (BmGr9 Q443E_Q445R): 4.07 mM
Hill Slope (BmGr9 Q443E_Q445R; Q443E_Q445R, 95% CI in parentheses): 2.02 (1.27 to 3.33)
Hill Slope [1]: ~2.37
F max ([1]; ~ = CI not determined): ~0.20
activation by D-fructose (Fmax, Hill slope, EC50 fit) (BmGr9 F444A): no activity
EC50 (BmGr9 Q445E): 15.3 mM
Hill Slope (BmGr9 Q445E; Q445E, 95% CI in parentheses): 1.56 (0.68 to 3.75)
activation by D-fructose (Fmax, Hill slope, EC50 fit) (BmGr9 W354F): no activity
EC50 (BmGr9 Q443E_Q445A): 1.53 mM
Hill Slope (BmGr9 Q443E_Q445A; Q443E_Q445A, 95% CI in parentheses): 1.58 (0.69 to 6.42)
EC50 (BmGr9 Y332A): 8.3 mM
Hill Slope (BmGr9 Y332A; Y332A, 95% CI in parentheses): 0.99 (0.37 to 2.17)
EC50 (BmGr9 Q443D_Q445K): ~18 mM
Hill Slope (BmGr9 Q443D_Q445K; Q443D_Q445K, 95% CI in parentheses): 1.18 (0.24 to 2.87)
EC50 (BmGr9 Y332F): 2.6 mM
apparent affinity relative to wild-type (BmGr9 Y332F; Tyr332 to Phe): slightly increases the apparent affinity
Hill Slope (BmGr9 Y332F; Y332F): ~2.36
EC50 (BmGr9 F189Y): ~0.1 mM
Hill Slope (BmGr9 F189Y; F189Y, 95% CI in parentheses): 1.05 (0.44 to 2.15)
activation by D-fructose (Fmax, Hill slope, EC50 fit) (BmGr9 W193F): no activity
activation by D-fructose (Fmax, Hill slope, EC50 fit) (BmGr9 D99N): no activity
EC50 (BmGr9 P331A): 5.5 mM
Hill Slope (BmGr9 P331A; P331A, 95% CI in parentheses): 1.43 (0.87 to 2.39)
EC50 (BmGr9 Q445N): 20.3 mM
Hill Slope (BmGr9 Q445N; Q445N, 95% CI in parentheses): 1.49 (0.79 to 2.76)
